Measurements: US8236820B2, “Anti-inflammatory compounds and uses thereof” (priority 2007, dated 2012)

Tests used:
colon cancer cells = assay: Apoptosis (annexin V/PI), DFMO and phospho-sulindac I, 48 h; format: cell-based, human; settings: 48 h of incubation; concentrations below IC50s
Experimental: (§1) A—Left panel: Cell viability was determined in HT-29 (full bars) and SW-480 (empty bars) cells after 48 h of incubation with 5 mM DFMO, 40 μM phospho-sulindac (P-S) or simultaneous combination of DFMO and P-S. Data are expressed as percentage of control cells (cells incubated only with DMSO). […] Right panel: In this isobologram the additivity line connects the IC50 value of each compound used alone. A and B represent two different dose pairs of each compound (their respective concentrations are shown in parentheses). The location of both A and B below the additivity line signifies synergy. […] DNA content was determined from propidium iodide (PI) fluorescence. C—Apoptosis and necrosis were determined by combined staining with annexin V and PI and determining fluorescence intensity. The percentages of apoptotic cells were determined using the dual staining with annexin V and propidium iodide and are indicated in each quadrant: left bottom quadrant, viable cells (annexin V-negative/PI-negative); right bottom quadrant, early apoptotic cells (annexin V-positive/PI-negative); right upper quadrant, late apoptotic cells (annexin V-positive/PI-positive); left upper quadrant, necrotic cells (annexin V-negative, PI-positive). […]

BxPC-3 = assay: Cell viability (MTT) assay, 24-h IC50, BxPC-3; settings: Homo sapiens, BXPC-3, 24 h, read-out: 24-h IC50
Experimental: Cells were incubated at 37° C. in 5% CO2. Cells were seeded at 5.5×10^4 cells/cm^2, allowed to attach overnight, and the following morning cells were treated with each of the test compounds.
Cell viability assay: We used an assay based on the reduction of 3-(4,5-dimethylthiazol-2-yl)-2,5-diphenyltetrazolium bromide dye (MTT), which was determined according to the manufacture's protocol (Promega, Madison, Wis., USA).

SW480 cells = assay: Polyamine levels in SW480 cells; format: cell-based, human
Description: Further evidence of the synergy between the two compounds was provided by their effect on polyamine levels. Conventional sulindac is known to reduce polyamine levels in colon cancer cells (Yerushalmi et al. Role of polyamines in arginine-dependent colon carcinogenesis in Apc(Min) (/+) mice. Mol Carcinog 2006; 45(10):764-73.; Choi et al. Combination of 5-fluorouracil and N1,N11-diethylnorspermine markedly activates spermidine/spermine N1-acetyltransferase expression, depletes polyamines, and synergistically induces apoptosis in colon carcinoma cells. J Biol Chem 2005; 280(5):3295-304; and Basuroy and Gerner. Emerging concepts in targeting the polyamine metabolic pathway in epithelial cancer chemoprevention and chemotherapy. J Biochem (Tokyo) 2006; 139(1):27-33).

MDA-MB231 = assay: Cell viability (MTT) assay, 24-h IC50, MDA-MB231; format: cell-based, human; settings: Homo sapiens, MDA-MB-231, 24 h, read-out: 24-h IC50
[1] = system: MDA-MB 231 human breast cancer cells; assay: Annexin V and propidium iodide staining in MDA-MB231; format: cell-based; settings: MDA-MB231, compound at its IC50, 24 h
Experimental: (§2) Annexin V and propidium iodide (PI) staining: Cells were seeded at a density of 1×10^5 cells/well and treated for 24 h with various concentrations of each compound or equivalent volumes of DMSO. Briefly, after incubation with the test compounds, cells were trypsinized and stained with Annexin V-FITC (Invitrogen) and PI (0.5 μg/ml). Following incubation at room temperature for 15 min in the dark, annexin V-FITC and PI fluorescence intensities were analyzed by FACScaliber (BD Bioscience). Annexin V (+)/PI (−) cells are in early apoptosis, annexin V (+)/PI (+) cells are in late apoptosis (secondary necrosis), and annexin V (−)/ PI (+) cells are necrotic cells.
As summarized in Table 2 below, in MDA-MB231 cells, all six compounds, each used at its IC50 concentration, a) inhibited cell proliferation between 6% and 50% compared to controls; b) induced both early and late apoptosis, as well as necrosis; and c) inhibited the G1 to S cell cycle phase transition. In this Table, the values for proliferation are the percentage of the corresponding control values. Those for apoptosis and necrosis refer to the percentage of cells in each category with respect to the entire cell population, and are to be compared to the control (vehicle only-treated) cells (uppermost row).

HT-29 cells = assay: Cell cycle analysis, DFMO and phospho-sulindac I, 48 h; format: cell-based, human; settings: DFMO 5 mM, phospho-sulindac I 40 μM
Experimental: as §1

[2] = system: SW480 and HT-29 human colon cancer cells; assay: Cell kinetics of colon cancer cells treated with phospho-sulindac I; format: cell-based
Experimental: Cell proliferation assay: To determine cell proliferation, we measured the incorporation of 5-bromo-2′-deoxyuridine (BrdU) into newly synthesized cellular DNA, following the manufacture's instructions (BD Biosciences, San Jose, Calif.).
as §2
Determination of cell cycle phase distribution (PI incorporation assay): Cells were seeded in culture plates and treated for 24 h with various concentrations of each compound or equivalent volumes of DMSO. After treatment, cells were trypsinized and fixed in 70% ethanol for 1 h on ice, stained with PI (50 μg/ml) and RNase A (4 U/ml) for 30 min and subjected to flow cytometric analysis for the determination of their distribution in the cell cycle phases.

SW480 = assay: DFMO / phospho-sulindac I synergy, cell growth at 48 h, SW480; format: cell-based, human; settings: SW480, 48 h; DFMO 5 mM, phospho-sulindac I 40 μM
Experimental: as §1

[3] = 24 h at its 24-h IC50, vs untreated controls

Structure (SMILES): CCOP(=O)(OCC)OCCCCOC(=O)CC1=C(C)/C(=C/c2ccc([S+](C)[O-])cc2)c2ccc(F)cc21 (stereo not shown) [Phospho-sulindac I]
- percentage of apoptotic cells (colon cancer cells): 16.5%
- IC50 (BxPC-3): 62 µM
- level of putrescine (SW480 cells): 91 % of control values
- level of spermidine (SW480 cells): 34 % of control values
- level of spermine (SW480 cells): 9 % of control values
- IC50 (MDA-MB231): 17 µM
- Necrosis (%) ([1]; % of entire cell population (control 0.6)): 1.1%
- Early apoptosis (%) ([1]; % of entire cell population (control 1.4)): 1.7%
- Late apoptosis (%) ([1]; % of entire cell population (control 2.0)): 4.7%
- G1 population arrest (HT-29 cells): 75%
- S phase (HT-29 cells): 13.6%
- effect on G1 to S cell cycle phase transition ([2]; 24 h at its 24-h IC50): blocked the transition form the G1 to the S cell cycle phase
- induced apoptosis (early and late subtypes combined) [2, 3]: 201%
- induced necrosis [2, 3]: 1350%
- inhibited cell proliferation [2, 3]: 72%
- necrosis in treated cells ([2]; 24 h at its 24-h IC50, controls 0.2%): 2.9%
- apoptosis (early and late combined) in treated cells ([2]; 24 h at its 24-h IC50, controls 6.6%): 20%
- cell proliferation in treated cells ([2]; 24 h at its 24-h IC50, controls 43%): 12%
- reduction in cell number (SW480): 45%
